Measured values published in patent US9180214B1, “Gonadotropin-releasing hormone receptor-targeting peptides and their use to treat and diagnose cancer” (STC.UNM, priority 2011, dated 2015).
Positions of bridges follow the written chain, without caps; N, C: chain ends. Non-standard residues stand in square brackets, D forms with d. Residues, ends and D or L forms follow the SMILES beside them. Chains are numbered I, II in the order given. *: point of attachment. DOTA = O=C(O)CN1CCN(CC(=O)O)CCN(CC(=O)*)CCN(CC(=O)O)CC1; pGlu = O=C1CC[C@@H](C(=O)O)N1; Ahx = NCCCCCC(=O)O

Assays:
[1] = biological target: T1, human GnRH receptor membrane preparations (Homo sapiens, UniProt P30968); assay: In vitro competitive GnRH receptor binding assay with ^125I-[D-Trp^6]-LH-RH
T1 construct: purchased Millipore, Inc (Billerica, Mass.)
T1 sequence (P30968 1-328): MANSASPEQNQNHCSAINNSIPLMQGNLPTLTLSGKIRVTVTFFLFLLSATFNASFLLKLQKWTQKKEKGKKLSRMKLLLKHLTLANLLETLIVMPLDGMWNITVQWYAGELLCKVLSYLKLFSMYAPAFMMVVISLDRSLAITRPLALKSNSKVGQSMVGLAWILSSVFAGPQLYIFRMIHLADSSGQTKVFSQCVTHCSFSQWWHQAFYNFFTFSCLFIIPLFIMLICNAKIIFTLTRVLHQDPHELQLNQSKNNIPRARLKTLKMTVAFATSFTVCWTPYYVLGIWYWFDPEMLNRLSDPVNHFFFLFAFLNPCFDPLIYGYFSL
Description: The GnRH receptor binding affinities (IC50 values) of DOTA-Ahx-(D-Lys^6-GnRH1), DOTA-Ahx-(D-Lys^6-GnRH2) and DOTA-Ahx-(L-Lys^6-GnRH3) were determined by in vitro competitive binding assay according to the published procedure^32 with modifications. Briefly, 5 μL of Millipore ChemiScreen™ human GnRH membrane preparations were incubated at 25° C. for 3 h with approximately 30,000 counts per minute (cpm) of ^125I-[D-Trp^6]-LH-RH in the presence of 10^−11 to 10^−5 M of each peptide in 95 μL of binding medium {50 mM N-(2-hydroxyethyl)-piperazine-N′-(2-ethanesulfonic acid), 5 mM MgCl2, 1 mM CaCl2, pH 7.4, 0.2% bovine serum albumin (BSA)}. After the incubation, 800 μL of ice-cold washing buffer (50 mM N-(2-hydroxyethyl)-piperazine-N′-(2-ethanesulfonic acid), 500 mM NaCl, pH 7.4, 0.1% BSA) was added to each mixture. Each resulting mixture was filtered through a GF/C filter (Whatman, Clifton, N.J.) pre-soaked in 1% polyethylenimine. Each filter was rinsed with 1 mL of ice-cold washing buffer for three times. The activities on the filters were measured in a Wallac 1480 automated gamma counter (PerkinElmer, Waltham, Mass.). The IC50 value of each peptide was calculated using Prism software (GraphPad Software, La Jolla, Calif.).

[2] = tested on: DU145 human prostate cancer-xenografted nude mice; assay: Biodistribution in DU145 human prostate cancer-xenografted nude mice; format: in vivo, mouse; settings: DU145 xenograft
Description: All the animal studies were conducted in compliance with Institutional Animal Care and Use Committee approval. The pharmacokinetics of ^111In-DOTA-Ahx-(D-Lys^6-GnRH1) was determined in DU145 human prostate cancer-xenografted male athymic nude mice (Harlan, Indianapolis, Ind.). The nude mice were subcutaneously inoculated with 1×10^7 DU145 cells on the right flank of each mouse to generate DU145 xenografted tumors. The tumor weights reached approximately 0.3 g at 18 days post cell inoculation. Each tumor-bearing mouse was injected with 0.037 MBq of 111In-DOTA-Ahx-(D-Lys6-GnRH1) via the tail vein. Groups of 5 mice were sacrificed at 0.5, 2, 4 and 24 h post-injection, and tumors and organs of interest were harvested, weighed and counted. Blood values were taken as 6.5% of the whole-body weight. To determine the tumor imaging property of ^111In-DOTA-Ahx-(D-Lys^6-GnRH1), approximately 33.3 MBq of ^111In-DOTA-Ahx-(D-Lys^6-GnRH1) was injected into a DU145 human prostate cancer-xenografted nude mouse (18 days post the cell inoculation) via the tail vein. The mouse was sacrificed for small animal SPECT/CT (Nano-SPECT/CT®, Bioscan) imaging at 0.5 h post-injection. The CT imaging was immediately followed by the whole-body SPECT imaging. The SPECT scans of 24 projections were acquired. Reconstructed SPECT and CT data were visualized and co-registered using InVivoScope (Bioscan, Washington D.C.).

[3] = tested on: MDA-MB-231 human breast cancer-xenografted nude mice; assay: Biodistribution in MDA-MB-231 human breast cancer-xenografted nude mice; format: in vivo, mouse; settings: MDA-MB-231 xenograft
Description: All the animal studies were conducted in compliance with Institutional Animal Care and Use Committee approval. The pharmacokinetics of ^111In-DOTA-Ahx-(D-Lys^6-GnRH1) was determined in MDA-MB-231 human breast cancer-xenografted female athymic nude mice (Harlan, Indianapolis, Ind.). The nude mice were subcutaneously inoculated with 1×10^7 MDA-MB-231 cells on the right flank of each mouse to generate MDA-MB-231 xenografted tumors. The tumor weights reached approximately 0.3 g at 18 days post cell inoculation. Each tumor-bearing mouse was injected with 0.037 MBq of ^111In-DOTA-Ahx-(D-Lys^6-GnRH1) via the tail vein. Groups of 5 mice were sacrificed at 0.5, 2, 4 and 24 h post-injection, and tumors and organs of interest were harvested, weighed and counted. Blood values were taken as 6.5% of the whole-body weight.

[4] = Urinary metabolites by RP-HPLC in DU145 xenografted nude mouse; format: in vivo; settings: 2 h post-injection
Description: One hundred microliters of HPLC purified ^111In-DOTA-Ahx-(D-Lys^6-GnRH1) (2.4 MBq) was injected into a DU145 human prostate cancer-xenografted nude mouse through the tail vein. At 2 h post-injection, the mouse was sacrificed and the urine was collected for metabolites analysis. The urine was centrifuged at 16,000 g for 5 min prior to the HPLC analysis. The radioactive metabolites in the urine were analyzed by injecting aliquots of the urine into HPLC. A 20-minute gradient of 15-25% acetonitrile/20 mM HCl was used for the urine analysis.

[5] = In vitro mouse serum stability by RP-HPLC; format: in vitro ADME; settings: 37° C., 2 h
Description: In vitro serum stability of ^111In-DOTA-Ahx-(D-Lys^6-GnRH1) was determined by incubation in mouse serum at 37° C. for 2 h and monitored for degradation by RP-HPLC. Briefly, 100 μL of HPLC-purified ^111In-DOTA-Ahx-(D-Lys^6-GnRH1) solution (˜3.7 MBq) was added into 100 μL of mouse serum (Sigma-Aldrich Corp, St. Louis, Mo.) and incubated at 37° C. for 2 h. After the incubation, 200 μL of a mixture of ethanol and acetonitrile (V:V=1:1) was added to precipitate the serum. The resulting mixture was centrifuged at 10,000 g for 5 min to collect the supernatant. The supernatant was purged with N2 gas for 30 min to remove the ethanol and acetonitrile. The resulting sample was mixed with 500 μL of water and injected into RP-HPLC for analysis using the gradient described above.

human GnRH receptor [6] = biological target: T2, human GnRH receptor (human, UniProt P30968 1-328); assay: ratio of IC50 values from the competitive binding assay
T2 construct: whole, on cells; also called gonadotropin-releasing hormone (GnRH) receptor; ChemiScreen Human GnRH receptor membrane preparations
T2 sequence (looked up): T1 sequence (P30968 1-328)

human GnRH receptor [7] = biological target: T2, human GnRH receptor; assay: competitive binding against 125I-[D-Trp6]-LH-RH on human GnRH receptor membrane preparations, filter assay
Description: The GnRH receptor binding affinities (IC$50$ values) of DOTA-Ahx-(D-Lys^6-GnRH1), DOTA-Ahx-(D-Lys^6-GnRH2) and DOTA-Ahx-(L-Lys^6-GnRH3) were determined by in vitro competitive binding assay according to the published procedure[32] with modifications. […] After the incubation, 800 μL of ice-cold washing buffer (50 mM N-(2-hydroxyethyl)-piperazine-N'-(2-ethanesulfonic acid), 500 mM NaCl, pH 7.4, 0.1% BSA) was added to each mixture. Each resulting mixture was filtered through a GF/C filter (Whatman, Clifton, N.J.) pre-soaked in 1% polyethylenimine. Each filter was rinsed with 1 mL of ice-cold washing buffer for three times. The activities on the filters were measured in a Wallac 1480 automated gamma counter (PerkinElmer, Waltham, Mass.). The IC$50$ value of each peptide was calculated using Prism software (GraphPad Software, La Jolla, Calif.).

CC(C)C[C@H](NC(=O)[C@@H](CCCCNC(=O)CCCCCNC(=O)CN1CCN(CC(=O)O)CCN(CC(=O)O)CCN(CC(=O)O)CC1)NC(=O)[C@H](Cc1ccc(O)cc1)NC(=O)[C@H](CO)NC(=O)[C@H](Cc1c[nH]c2ccccc12)NC(=O)[C@H](Cc1c[nH]cn1)NC(=O)[C@@H]1CCC(=O)N1)C(=O)N[C@@H](CCCNC(=N)N)C(=O)N1CCC[C@H]1C(=O)NCC(N)=O [DOTA-Ahx-(D-Lys^6-GnRH1)]
GnRH receptor binding affinity (in words) [1]: low nanomolar

CC(C)C[C@H](NC(=O)[C@@H](CCCCNC(=O)[C@H](Cc1ccc(O)cc1)NC(=O)[C@H](CO)NC(=O)[C@H](Cc1c[nH]c2ccccc12)NC(=O)[C@H](Cc1c[nH]cn1)NC(=O)[C@@H]1CCC(=O)N1)NC(=O)CCCCCNC(=O)CN1CCN(CC(=O)O)CCN(CC(=O)O)CCN(CC(=O)O)CC1)C(=O)N[C@@H](CCCNC(=N)N)C(=O)N1CCC[C@H]1C(=O)NCC(N)=O [DOTA-Ahx-(D-Lys^6-GnRH2)] (I: {DOTA-Ahx}-[dK]LRPG-NH2 / II: [pGlu]HWSY; amide I:1-II:C)
decrease of GnRH receptor binding affinity versus DOTA-Ahx-(D-Lys^6-GnRH1) [1]: 293 fold

CC(C)C[C@H](NC(=O)[C@H](CCCCNC(=O)CCCCCNC(=O)CN1CCN(CC(=O)O)CCN(CC(=O)O)CCN(CC(=O)O)CC1)NC(=O)[C@H](Cc1ccc(O)cc1)NC(=O)[C@H](CO)NC(=O)[C@H](Cc1c[nH]c2ccccc12)NC(=O)[C@H](Cc1c[nH]cn1)NC(=O)[C@@H]1CCC(=O)N1)C(=O)N[C@@H](CCCNC(=N)N)C(=O)N1CCC[C@H]1C(=O)NCC(N)=O [DOTA-Ahx-(L-Lys^6-GnRH3)]
decrease of GnRH receptor binding affinity versus DOTA-Ahx-(D-Lys^6-GnRH1) [1]: 119 fold

CC(C)C[C@H](NC(=O)[C@@H](CCCCNC(=O)CCCCCNC(=O)CN1CCN(CC(=O)O)CCN(CC(=O)O)CCN(CC(=O)O)CC1)NC(=O)[C@H](Cc1ccc(O)cc1)NC(=O)[C@H](CO)NC(=O)[C@H](Cc1c[nH]c2ccccc12)NC(=O)[C@H](Cc1cnc[nH]1)NC(=O)[C@@H]1CCC(=O)N1)C(=O)N[C@@H](CCCNC(=N)N)C(=O)N1CCC[C@H]1C(=O)NCC(N)=O [^111In-DOTA-Ahx-(D-Lys^6-GnRH1), metal not drawn]
Kidneys, percent injected dose/gram ([2]; 0.5 h post-injection): 10.93±1.53 % ID/g | Tumor, percent injected dose/gram ([2]; 0.5 h post-injection): 1.27±0.40 % ID/g | Kidneys, percent injected dose/gram ([2]; 2 h post-injection): 6.41±0.34 % ID/g | Tumor, percent injected dose/gram ([2]; 2 h post-injection): 0.55±0.23 % ID/g | Kidneys, percent injected dose/gram ([2]; 4 h post-injection): 7.29±0.90 % ID/g | Tumor, percent injected dose/gram ([2]; 4 h post-injection): 0.38±0.16 % ID/g | Kidneys, percent injected dose/gram ([2]; 24 h post-injection): 2.72±0.64 % ID/g | Tumor, percent injected dose/gram ([2]; 24 h post-injection): 0.31±0.09 % ID/g | Kidneys, percent injected dose/gram ([3]; 0.5 h post-injection): 15.39±4.59 % ID/g | Tumor, percent injected dose/gram ([3]; 0.5 h post-injection): 1.76±0.58 % ID/g | Blood, percent injected dose/gram ([3]; 2 h post-injection): 0.20±0.03 % ID/g | Kidneys, percent injected dose/gram ([3]; 2 h post-injection): 8.88±1.26 % ID/g | Liver, percent injected dose/gram ([3]; 2 h post-injection): 0.77±0.06 % ID/g | Tumor, percent injected dose/gram ([3]; 2 h post-injection): 0.29±0.10 % ID/g | Kidneys, percent injected dose/gram ([3]; 4 h post-injection): 9.28±1.18 % ID/g | Liver, percent injected dose/gram ([3]; 4 h post-injection): 0.97±0.13 % ID/g | Tumor, percent injected dose/gram ([3]; 4 h post-injection): 0.15±0.05 % ID/g | Kidneys, percent injected dose/gram ([3]; 24 h post-injection): 4.43±1.67 % ID/g | Liver, percent injected dose/gram ([3]; 24 h post-injection): 0.59±0.16 % ID/g | Tumor, percent injected dose/gram ([3]; 24 h post-injection): 0.18±0.07 % ID/g | metabolized into two compounds with higher polarity (urine) [4]: 90.2% | remained intact in urine [4]: 9.8% | stability in mouse serum [5]: stable

DOTA-Ahx-(D-Lys^6-GnRH2) (peptide)
fold decrease of GnRH receptor binding affinity against DOTA-Ahx-(D-Lys^6-GnRH1) (human GnRH receptor [6]): 293 fold

B1: DOTA-Ahx-(D-Lys^6-GnRH1) (peptide)
peptide: XHWSYKLRPG
modifications: pGlu at 1; D-Lys at 6 carrying DOTA-Ahx (aminohexanoic acid linker) on its epsilon amino group; C-terminal amide (Gly10-NH2)
IC50 (human GnRH receptor [7]): 36.1 nM

B2: DOTA-Ahx-(L-Lys^6-GnRH3) (peptide)
peptide: XHWSYKLRPG
modifications: pGlu at 1; L-Lys at 6 carrying DOTA-Ahx on its epsilon amino group; C-terminal amide
fold decrease of GnRH receptor binding affinity against DOTA-Ahx-(D-Lys^6-GnRH1) (human GnRH receptor [6]): 119 fold
